Test [1] deals with gemcitabine-treated mice. Kind of test: White blood cell counts in gemcitabine-treated mice (oral efficacy study). It counts as in vivo, C57Bl/6 mice. Particulars: subcutaneous, 0.3 mg/kg daily for 21 days after 160 mg/kg gemcitabine; FIG. 1. How it is done:
(§1) The female C57Bl/6 mice (7 per group), 6-8 weeks old, were treated with the formulations described above daily starting 1 day after intravenous injection with chemotherapy, 160 mg/kg gemcitabine. On days 1, 3, 7, 15 and 21 after chemotherapy administration, blood was taken under anesthesia from the saphenous vein to assess white blood cell, and platelet numbers. On day 22, the mice were euthanized and bone marrow collected to assess the number of colony forming units.
(§2) The mice were bled from the saphenous vein. The mice were anesthetized by placing the nose of the animals in a 50 ml conical tube containing cotton balls soaked with isoflurane (an inhaled anesthesia). […]
(§3) Twenty μl of blood was mixed with 180 μl of RBC lysing solution (0.83% NH4Cl, 10 mM EDTA, 0.5% NaHCO3). […] This mixture was vortexed and the number of WBC was evaluated by hematocytometer under light microscopy and the number of platelets was evaluated by hematocytometer under phase contrast microscopy.
(§4) In order to assess the oral efficacy, gemcitabine-treated mice were treated daily for 21 days with five treatments: 1) SQ dosed saline, 2) SQ dosed A(1-7) at 0.3 mg/kg, 3) SQ dosed NorLeu3-A(1-7) at 0.3 mg/kg, 4) orally dosed β-CD formulated A(1-7) at 0.3 mg/kg, or 5) orally dosed β-CD formulated NorLeu-A(1-7)) at 0.3 mg/kg. The effects of these treatments on peripheral blood counts were assessed.

For test [2], the system named is gemcitabine-treated mice. Kind of test: Platelet counts in gemcitabine-treated mice (oral efficacy study). The format is in vivo, C57Bl/6 mice. Particulars: subcutaneous, 0.3 mg/kg daily for 21 days after 160 mg/kg gemcitabine; FIG. 3. How it is done:
as §1, §2, §3, §4

Two substances from US10987403B2, “Cyclodextrin-Nle3-A(1-7) compositions and their use” (University of Southern California, priority 2017, dated 2021) can be followed below.

Where no end group is shown, it is not given here. [ ]: non-standard residue; d: D form. Nle = CCCC[C@H](N)C(=O)O

Regarding “Asp-Arg-Nle-Tyr-Ile-His-Pro (DR[Nle]YIHP) [NorLeu3-A(1-7), dosed subcutaneously as comparator]”, the “number of circulating WBC” value with gemcitabine-treated mice [1] is recorded as “increased the number of circulating WBC”. For the same substance, the circulating platelet numbers entry with gemcitabine-treated mice [2] is “did not circulating platelet numbers”.

With “angiotensin (1-7) (DRVYIHP; Angiotensin 1-7; UniProt P01019 25-31, looked up, fragment) [A(1-7), Investigational Mas agonist peptide]”, in the test on gemcitabine-treated mice [1], the “number of circulating WBC” value was “increased the number of circulating WBC”.
